Assays:
Experiment in all cases: relative viability (nuclei count vs DMSO), 5 days (fraction); higher = more cells survive
Idelalisib + Olaparib = compound: CC[C@H](Nc1ncnc2[nH]cnc12)c1nc2cccc(F)c2c(=O)n1-c1ccccc1 [Idelalisib] + O=C(c1cc(Cc2n[nH]c(=O)c3ccccc23)ccc1F)N1CCN(C(=O)C2CC2)CC1 [Olaparib] (partner 8 µM)
Outline: (§1)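 Medians of duplicate plates are given as relative viability. That measure is the nuclei count in treated wells divided by the count in vehicle wells. Counts were taken on 4× images of lung cancer cell lines in 1536-well plates, 5 days after pin-tool dosing the day after seeding with one drug alone or a fixed anchor-drug dose plus five library-drug doses (not always all listed) in √10 steps.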

Idelalisib + Alpelisib = compound: CC[C@H](Nc1ncnc2[nH]cnc12)c1nc2cccc(F)c2c(=O)n1-c1ccccc1 [Idelalisib] + Cc1nc(NC(=O)N2CCC[C@H]2C(N)=O)sc1-c1ccnc(C(C)(C)C(F)(F)F)c1 [Alpelisib] (partner 2 µM)
Outline: as §1

Idelalisib + OSI-027 = compound: CC[C@H](Nc1ncnc2[nH]cnc12)c1nc2cccc(F)c2c(=O)n1-c1ccccc1 [Idelalisib] + COc1cccc2cc(-c3nc([C@H]4CC[C@H](C(=O)O)CC4)n4ncnc(N)c34)[nH]c12 [OSI-027] (partner 0.5 µM)
Outline: as §1

Idelalisib + Pemetrexed = compound: CC[C@H](Nc1ncnc2[nH]cnc12)c1nc2cccc(F)c2c(=O)n1-c1ccccc1 [Idelalisib] + Nc1nc2[nH]cc(CCc3ccc(C(=O)N[C@@H](CCC(=O)O)C(=O)O)cc3)c2c(=O)[nH]1 [Pemetrexed] (partner 0.2 µM)
Outline: as §1

| Cell Line | relative viability (Idelalisib + Olaparib; first compound 0.04 µM) | relative viability (Idelalisib + Olaparib; first compound 0.1265 µM) | relative viability (Idelalisib + Olaparib; first compound 0.4 µM) | relative viability (Idelalisib + Olaparib; first compound 1.265 µM) | relative viability (Idelalisib + Olaparib; first compound 4 µM) | relative viability (Idelalisib + Alpelisib; first compound 0.04 µM) | relative viability (Idelalisib + Alpelisib; first compound 0.1265 µM) | relative viability (Idelalisib + Alpelisib; first compound 0.4 µM) | relative viability (Idelalisib + Alpelisib; first compound 1.265 µM) | relative viability (Idelalisib + Alpelisib; first compound 4 µM) | relative viability (Idelalisib + OSI-027; first compound 0.04 µM) | relative viability (Idelalisib + OSI-027; first compound 0.1265 µM) | relative viability (Idelalisib + OSI-027; first compound 0.4 µM) | relative viability (Idelalisib + OSI-027; first compound 1.265 µM) | relative viability (Idelalisib + OSI-027; first compound 4 µM) | relative viability (Idelalisib + Pemetrexed; first compound 0.04 µM) | relative viability (Idelalisib + Pemetrexed; first compound 0.1265 µM) | relative viability (Idelalisib + Pemetrexed; first compound 0.4 µM) | relative viability (Idelalisib + Pemetrexed; first compound 1.265 µM) | relative viability (Idelalisib + Pemetrexed; first compound 4 µM) |
| --- | --- | --- | --- | --- | --- | --- | --- | --- | --- | --- | --- | --- | --- | --- | --- | --- | --- | --- | --- | --- |
| NCI-H1755 | 0.881 | 0.892 | 0.842 | 0.801 | 0.821 | 0.611 | 0.9 | 0.827 | 0.784 | 0.735 | 0.69 | 0.687 | 0.584 | 0.675 | 0.573 | 0.431 | 0.415 | 0.38 | 0.434 | 0.438 |
| NCI-H661 | 0.821 | 0.783 | 0.738 | 0.888 | 0.764 | 0.708 | 0.642 | 0.637 | 0.718 | 0.813 | 0.705 | 0.838 | 0.607 | 0.661 | 0.706 | 0.973 | 0.926 | 0.911 | 0.952 | 0.924 |
| NCI-H1944 | 0.427 | 0.395 | 0.388 | 0.394 | 0.406 | 0.881 | 0.836 | 0.651 | 0.688 | 0.545 | 0.473 | 0.411 | 0.271 | 0.396 | 0.365 | 0.724 | 0.58 | 0.516 | 0.484 | 0.586 |
| NCI-H23 | 0.286 | 0.289 | 0.336 | 0.29 | 0.307 | 0.737 | 0.635 | 0.357 | 0.727 | 0.515 | 0.614 | 0.618 | 0.216 |  | 0.537 | 0.64 | 0.619 | 0.422 | 0.53 | 0.509 |
| NCI-H1648 |  | 1.16 | 0.712 | 1.11 | 0.657 |  |  |  |  |  | 0.272 | 0.368 | 0.261 | 0.285 | 0.26 | 0.711 | 0.76 | 0.806 | 0.749 | 0.53 |
| NCI-H522 | 0.684 | 0.526 | 0.606 | 0.678 | 0.72 |  |  |  |  |  | 0.823 | 0.711 | 0.729 | 0.771 | 0.698 | 1.3 | 0.99 | 0.995 | 1.21 | 1.05 |
| HCC-366 | 0.386 | 0.412 | 0.348 | 0.305 | 0.315 | 0.429 | 0.4 | 0.28 | 0.245 | 0.183 | 1.09 | 0.889 | 0.598 | 0.788 | 0.677 | 0.178 | 0.163 | 0.214 | 0.138 | 0.21 |
| EBC-1 | 0.721 | 0.777 | 0.763 | 0.65 | 0.588 | 0.961 | 0.941 | 0.684 | 0.658 | 0.349 |  |  |  |  |  |  |  |  |  |  |
| ChaGo-K-1 | 0.347 | 0.399 | 0.472 | 0.38 | 0.379 |  |  |  |  |  | 0.618 | 0.55 | 0.456 | 0.576 | 0.513 | 0.254 | 0.252 | 0.268 | 0.254 | 0.264 |
| LCLC-97TM1 | 0.328 | 0.349 | 0.324 | 0.347 | 0.378 | 0.274 | 0.211 |  | 0.284 | 0.168 | 0.649 | 0.543 | 0.24 | 0.554 | 0.418 | 0.182 | 0.182 | 0.15 | 0.155 | 0.199 |
| NCI-H1299 | 1.01 | 0.982 | 0.941 | 1.02 | 1.06 | 1.02 | 1.03 | 1.02 | 1.03 | 1.15 |  |  |  |  |  |  |  |  |  |  |
| EMC-BAC-2 | 0.459 | 0.518 | 0.477 | 0.472 | 0.476 | 0.689 | 0.736 | 0.674 | 0.707 | 0.684 | 0.388 | 0.411 | 0.308 | 0.363 | 0.352 | 0.484 | 0.44 | 0.477 | 0.435 | 0.43 |
| NCI-H1623 |  |  |  |  |  |  |  |  |  |  | 0.409 | 0.463 | 0.45 | 0.402 | 0.386 |  |  |  |  |  |
| NCI-H441 | 0.532 | 0.582 |  | 0.618 | 0.55 | 0.987 | 0.455 |  | 0.839 | 0.611 | 0.788 | 0.561 | 0.397 | 0.526 | 0.616 | 0.247 | 0.233 |  | 0.285 | 0.251 |
| IA-LM | 0.711 | 0.952 | 0.747 | 1.02 | 0.93 | 0.787 | 0.754 | 0.884 | 0.72 | 0.84 |  |  |  |  |  |  |  |  |  |  |
| A549 | 0.238 | 0.28 | 0.236 | 0.266 | 0.361 | 0.873 | 0.812 | 0.505 | 0.51 | 0.548 |  |  |  |  |  |  |  |  |  |  |
| NCI-H1563 |  |  |  |  |  | 0.839 | 1.03 | 0.807 | 0.825 | 0.669 | 0.766 | 0.757 | 0.703 | 0.767 | 0.701 | 0.845 | 0.73 | 0.714 | 0.757 | 0.732 |
| NCI-H727 | 0.813 | 0.624 | 0.688 | 0.779 | 0.836 | 0.643 | 0.69 | 0.499 | 0.588 | 0.622 | 0.749 | 0.708 | 0.45 | 0.562 | 0.52 |  |  |  |  |  |
| Calu-6 | 0.669 | 0.61 | 0.533 | 0.657 | 0.53 | 0.954 | 1.03 | 0.909 | 0.99 | 0.892 |  |  |  |  |  |  |  |  |  |  |
| NCI-H1650 | 0.793 | 0.865 | 0.768 | 0.789 | 0.654 |  |  |  |  |  | 0.641 | 0.602 | 0.478 | 0.578 | 0.536 | 0.276 | 0.43 | 0.373 | 0.382 | 0.319 |
| NCI-H2342 | 0.442 | 0.481 | 0.457 | 0.421 | 0.407 |  |  |  |  |  | 0.587 | 0.613 | 0.582 | 0.641 | 0.618 | 0.853 | 0.74 | 0.717 | 0.706 | 0.765 |
